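Cells were grown in 96-well plates and exposed to each compound for 48 hours at five concentrations; endpoints were interpolated linearly between bracketing concentrations, or set to the highest concentration if not reached. Abbreviation: GI50, concentration required for 50% inhibition of growth. TGI: concentration producing complete growth inhibition.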
Tests used:
Assay in all cases: growth of human tumour cells (NCI), 48 h
RXF-631 renal = test system: RXF-631 renal
DLD-1 colon = test system: DLD-1 colon
DMS 273 small cell lung = test system: DMS 273 small cell lung
XF 498 CNS = test system: XF 498 CNS
M19-MEL melanoma = test system: M19-MEL melanoma
KM20L2 colon = test system: KM20L2 colon
MDA-N = test system: MDA-N
MDA-MB-435 = test system: MDA-MB-435
MCF7 breast = test system: MCF7 breast

Row | Compound | TGI (RXF-631 renal) [µM] | TGI (DLD-1 colon) [µM] | TGI (DMS 273 small cell lung) [µM] | TGI (XF 498 CNS) [µM] | TGI (M19-MEL melanoma) [µM] | TGI (KM20L2 colon) [µM] | TGI (MDA-N) [µM] | TGI (MDA-MB-435) [µM] | TGI (MCF7 breast) [µM] | GI50 (RXF-631 renal) [µM] | GI50 (DLD-1 colon) [µM] | GI50 (DMS 273 small cell lung) [µM] | GI50 (XF 498 CNS) [µM] | GI50 (M19-MEL melanoma) [µM]
1 | C/C(CC(=O)Nc1ccc(C)cc1C)=N/N=C(N)N | > 100 | > 100 | > 100 | > 100 | > 100 | > 100 | – | – | – | – | – | – | – | –
2 | Cc1cccc(C)c1NC(=O)C(=O)C1C(=O)NC(=O)NC1=O | > 100 | > 100 | > 100 | > 100 | > 100 | > 100 | – | – | – | – | – | – | – | –
3 | COC(=O)/C=C/c1cc(OC)c(OC)c(OC)c1 | > 100 | > 100 | > 100 | > 100 | > 100 | > 100 | – | – | – | – | – | – | – | –
4 | CN1CCN(C)C12C=c1ccccc1=CC21CC1 | > 100 | 68.2 | > 100 | 49.5 | 37.1 | > 58.2 | > 63.9 | 48.3 | > 100 | – | – | – | – | –
5 | CC1=NN(C(=O)Nc2ccccc2)C(=O)C2CCC(=O)N12 (stereo not given) | > 100 | > 100 | > 100 | > 100 | > 100 | > 100 | – | – | – | – | – | – | – | –
6 | NC(CCC(=O)NC(CSSCCCCS(=O)O)C(=O)NCC(=O)O)C(=O)O (stereo not given) | > 100 | > 100 | > 100 | > 100 | > 100 | > 100 | – | – | – | – | – | – | – | –
7 | O=c1/c(=C/c2ccco2)sc2nc3ccccc3n12 | > 100 | > 100 | > 100 | > 100 | > 100 | > 10 | – | – | – | > 100 | > 100 | > 10 | > 100 | > 100
8 | CC(C)C(=O)NC(=S)Nc1ccc([N+](=O)[O-])cc1C#N | > 100 | > 100 | > 100 | > 100 | > 100 | > 100 | – | – | – | – | – | – | – | –
9 | C/C(CC(=O)Nc1cc(Cl)c(Cl)cc1Cl)=N\NC(N)=O | > 100 | > 100 | > 100 | > 100 | > 100 | > 100 | – | – | – | – | – | – | – | –
10 | CCOC(=O)C1=C(OC(OCC)C(CC)[Se]c2ccccc2)CCCC1 (stereo not given) | 27.9 | 35.5 | 29.2 | 46.5 | 33 | 37.3 | – | – | – | – | – | – | – | –
11 | O=c1c2cc([N+](=O)[O-])ccc2sc2ccsc12 | > 100 | > 100 | – | > 100 | > 100 | > 100 | – | – | – | – | – | – | – | –
12 | CCCCN=C(NC#N)NCCCC | > 100 | > 100 | > 100 | > 100 | > 100 | > 100 | – | – | – | – | – | – | – | –
13 | N#Cc1cc([N+](=O)[O-])ccc1NC(=O)C(=O)Nc1n[nH]c(N)n1 | > 100 | > 100 | > 100 | > 100 | > 100 | > 100 | – | – | – | – | – | – | – | –
